Where two headings read alike, the source gives them in different places.
Legend:
[1] = tested on: lab-adapted and clinical HIV-1 isolates; test: Infection assays in primary T CD4+ lymphocytes; assay type: cell-based; conditions: Human immunodeficiency virus 1, Lymphocyte
[2] = tested on: NL4-3 HIV-1 with INLAI-selected IN single point mutations; assay type: cell-based
[3] = tested on: VSV-G-pseudotyped NL4-3Δenv-luc; test: microbe, parasite or virus in culture; assay type: cell-based, HIV-1
[4] = tested on: primary HIV-1 isolates with polymorphisms at IN positions 124 and 125; test: Multiple-round infection of MT4 cells with primary HIV-1 isolates polymorphic at IN positions 124 and 125; assay type: cell-based; conditions: primary isolate
Method in brief: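 Antiviral potency read as protection of cell viability (CellTiter-Glo luminescence). Infection at MOI 0.001 lasted 2 h with compound present at a range of concentrations, using MT4 cells at 10^6/mL in exponential growth.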

HIV-1 IN = molecular target: T1, HIV-1 IN (Human immunodeficiency virus type 1 group M subtype B, UniProt P12497); test: HTRF IN multimerization assay; assay type: biochemical; conditions: mean ± SD
T1 construct: made in house
Text: A key property of INLAIs is the ability to promote HIV-1 IN homo-multimerization ([39][–][42]). […] The maximal signal (plateau) in our IN aggregation assay corresponds to the highest HTRF signal increase under saturating INLAI concentration, relative to baseline level. Thus, MUT916, MUT884, MUT871, and MUT872 increased HIV-1 IN aggregation 3.7 to 4.4-fold, while BDM-2, BI-224436, and S-I-82 did so 5 to 6-fold (Table 1).

[5] = tested on: HIV-1 strains resistant to INSTIs, NRTIs, NNRTIs or PIs; assay type: cell-based
Method in brief: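 Cell viability (CellTiter-Glo luminescence) served as read-out in MT4 cells at 10^6/mL, infected 2 h at MOI 0.001 in presence of graded compound concentrations. Viruses: resistance-mutation recombinants in NL4-3 backbone plus resistant clinical isolates.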

[6] = molecular target: CCD of HIV-1 IN and IBD of LEDGF/p75 (Human immunodeficiency virus type 1 group M subtype B, UniProt P12497); test: biochemical
Procedure: (§1) The INLAIs were tested for the ability to inhibit the HIV-1 IN-LEDGF/p75 interaction in a homogeneous time-resolved fluorescence (HTRF) assay. Our assays used either full-length IN and LEDGF/p75 proteins or their respective minimally sufficient interaction domains: the CCD of HIV-1 IN and the IBD of LEDGF/p75 (Table 1).
(§2) HTRF-based CCD-IBD interaction, IN-LEDGF/p75 interaction and IN multimerization assays were performed as described previously ([12]).

[7] = tested on: recombinant NL4-3 viruses with polymorphisms at IN positions 124 and 125; test: Multiple-round infection of MT4 cells with recombinant NL4-3 viruses polymorphic at IN positions 124 and 125; assay type: cell-based, HIV-1
Method in brief: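 EC50 fold change relative to wild-type TT NL4-3 was derived from CellTiter-Glo viability of exponentially growing MT4 cells (10^6/mL). Cells were exposed for 2 h, with compounds, to NL4-3 clones bearing one of 15 IN 124/125 variants at MOI 0.001.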

[8] = Cytotoxicity assay in MT4 cells; assay type: cell-based; conditions: human, MT4 cells (proliferating human T-cell line), CellTiter-Glo
Text: Growth inhibition was monitored in a proliferating human T-cell line (MT4) with different concentrations of compounds, using the CellTiter-Glo luminescent reagent (Promega), as previously described ([12]).

HXB2 HIV-1 strain = test: Multiple-round infection assay in MT4 cells, HXB2; assay type: cell-based; conditions: Human immunodeficiency virus 1, HXB2; multiple-round infection, MT4 cells; mean ± SD, n > 5; read-out: EC50 HXB2
Method in brief: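 Antiviral read-out was CellTiter-Glo luminescent viability of exponentially growing MT4 cells (10^6/mL). Cells were exposed to HIV-1 for 2 h at an MOI of 0.001 while compound was present at varying concentrations.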

NL4-3 HIV-1 strain = test: Multiple-round infection assay in MT4 cells, NL4-3; assay type: cell-based; conditions: MT4 cells
[9] = molecular target: HIV-1 IN-LEDGF/p75 interaction (Human immunodeficiency virus type 1 group M subtype B, UniProt P12497); test: biochemical
Procedure: as §1, §2

[10] = INSTI-resistant, NL4-3 background

Cc1ccc(C2CC2)c(-c2ccc3c(c2C)CCCO3)c1[C@H](OC(C)(C)C)C(=O)O [MUT871]
EC50 ([1]; read-out: EC50 33913N (B)): 1.5 ± 0.6 nM
EC50 ([1]; read-out: EC50 HXB2 (B)): 1.8 ± 0.3 nM
EC50 ([1]; read-out: EC50 KER2008 (A)): 6.4 ± 1.3 nM
EC50 ([1]; read-out: EC50 NL4-3 (B)): 2.8 ± 0.5 nM
EC50 ([1]; read-out: EC50 NP1525 (CRF01_AE)): 3.5 ± 0.6 nM
EC50 ([1]; read-out: EC50 NP1538 (B)): 4 ± 2.3 nM
EC50 fold change compared to wild type NL4-3, A128T [2]: 2
EC50 fold change compared to wild type NL4-3, H171Q [2]: 6
EC50 fold change compared to wild type NL4-3, N222K [2]: 3
EC50 fold change compared to wild type NL4-3, T174I [2]: 323
EC50 fold change compared to wild type NL4-3, Y99H [2]: 4
EC50 ratio (single/multiple-round infection) [3]: 203
EC50 ([3]; Human immunodeficiency virus 1, NL43, MT4, read-out: EC50 in single-round infection): 630 ± 10 nM
Fold change in EC50 relative to parental NL4-3, CAM2BBY (CRF02) ([4]; IN 124/125 AA): 2
Fold change in EC50 relative to parental NL4-3, E0836M4 (D) ([4]; IN 124/125 AA): 2
Fold change in EC50 relative to parental NL4-3, KER2008 (A) ([4]; IN 124/125 AA): 1
Fold change in EC50 relative to parental NL4-3, NP1525 (CRF01) ([4]; IN 124/125 AA): 1
Fold change in EC50 relative to parental NL4-3, NP1695 (CRF02) ([4]; IN 124/125 AA): 3
Fold change in EC50 relative to parental NL4-3, TZA125 (C) ([4]; IN 124/125 AA): 1
Fold change in EC50 relative to parental NL4-3, KSM4030 (A) ([4]; IN 124/125 GA): 2
Fold change in EC50 relative to parental NL4-3, vGA (C) ([4]; IN 124/125 GA): 5
Fold change in EC50 relative to parental NL4-3, 99ET14 (C) ([4]; IN 124/125 NA): 2
Fold change in EC50 relative to parental NL4-3, NP1538 (B) ([4]; IN 124/125 NA): 2
Fold change in EC50 relative to parental NL4-3, vNA_1 (B) ([4]; IN 124/125 NA): 3
Fold change in EC50 relative to parental NL4-3, vNA_2 (CRF02) ([4]; IN 124/125 NA): 3
Fold change in EC50 relative to parental NL4-3, vNV (B) ([4]; IN 124/125 NV): 3
Fold change in EC50 relative to parental NL4-3, vSA_1 (B) ([4]; IN 124/125 SA): 4
Fold change in EC50 relative to parental NL4-3, vSA_2 (CRF02) ([4]; IN 124/125 SA): 3
Fold change in EC50 relative to parental NL4-3, vTA_1 (B) ([4]; IN 124/125 TA): 2
Fold change in EC50 relative to parental NL4-3, vTA_2 (CRF02) ([4]; IN 124/125 TA): 2
AC50 (HIV-1 IN; concentration for 50% maximum activation of multimerization): 31 ± 20 nM
IN multimerization Plateau (HIV-1 IN; maximum multimerization reached versus baseline): 440 ± 53%
Fold change in EC50 relative to NL4-3, E92Q [5, 10]: 1
Fold change in EC50 relative to NL4-3, G140S [5, 10]: 1
Fold change in EC50 relative to NL4-3, G140S/Q148H [5, 10]: 1
Fold change in EC50 relative to NL4-3, N155H [5, 10]: 1
Fold change in EC50 relative to NL4-3, Q148H [5, 10]: 1
Fold change in EC50 relative to NL4-3, Y143R [5, 10]: 1
Fold change in EC50 relative to NL4-3, NLAY351717 ([5]; NRTI-resistant clone): 1
Fold change in EC50 relative to NL4-3, NLAY351753 ([5]; NRTI/NNRTI-resistant clone): 1
Fold change in EC50 relative to NL4-3, K103N/Y181C ([5]; NRTI/NNRTIs group, NL4-3 background): 1
Fold change in EC50 relative to NL4-3, ARP-4595 ([5]; PI-resistant virus): 1
Fold change in EC50 relative to NL4-3, ARP-4596 ([5]; PI-resistant virus): 1
Fold change in EC50 relative to NL4-3, ARP-11801 ([5]; PI-resistant virus): 1
Fold change in EC50 relative to NL4-3, ARP-11803 ([5]; PI-resistant virus): 1
Fold change in EC50 relative to NL4-3, ARP-11807 ([5]; PI-resistant virus): 1
Fold change in EC50 relative to NL4-3, ARP-11808 ([5]; PI-resistant virus): 1
IC50 [6]: 32 ± 14 nM
Fold change in EC50 relative to parental NL4-3, AA ([7]; recombinant NL4-3, IN 124/125 AA): 1
Fold change in EC50 relative to parental NL4-3, AM ([7]; recombinant NL4-3, IN 124/125 AM): 0.4
Fold change in EC50 relative to parental NL4-3, AT ([7]; recombinant NL4-3, IN 124/125 AT): 1
Fold change in EC50 relative to parental NL4-3, AV ([7]; recombinant NL4-3, IN 124/125 AV): 1
Fold change in EC50 relative to parental NL4-3, GA ([7]; recombinant NL4-3, IN 124/125 GA): 3
Fold change in EC50 relative to parental NL4-3, GT ([7]; recombinant NL4-3, IN 124/125 GT): 2
Fold change in EC50 relative to parental NL4-3, NA ([7]; recombinant NL4-3, IN 124/125 NA): 2
Fold change in EC50 relative to parental NL4-3, NT ([7]; recombinant NL4-3, IN 124/125 NT): 1
Fold change in EC50 relative to parental NL4-3, NV ([7]; recombinant NL4-3, IN 124/125 NV): 1
Fold change in EC50 relative to parental NL4-3, SA ([7]; recombinant NL4-3, IN 124/125 SA): 1
Fold change in EC50 relative to parental NL4-3, ST ([7]; recombinant NL4-3, IN 124/125 ST): 1
Fold change in EC50 relative to parental NL4-3, TA ([7]; recombinant NL4-3, IN 124/125 TA): 1
Fold change in EC50 relative to parental NL4-3, TM ([7]; recombinant NL4-3, IN 124/125 TM): 0.3
Fold change in EC50 relative to parental NL4-3, TV ([7]; recombinant NL4-3, IN 124/125 TV): 1
CC50 [8]: 46000 ± 11000 nM
EC50 (HXB2 HIV-1 strain): 1.4 ± 0.3 nM
EC90 (NL4-3 HIV-1 strain; Human immunodeficiency virus 1, NL43, multiple-round infection, from dose response curves, read-out: EC90 NL4-3): 4.6 ± 1.6 nM
EC50 (NL4-3 HIV-1 strain; Human immunodeficiency virus 1, NL43, multiple-round infection, mean ± SD, n > 5, read-out: EC50 NL4-3): 3.1 ± 1 nM
Selectivity index CC50/EC50 NL4-3 (NL4-3 HIV-1 strain): 14,838
IC50 [9]: 14 ± 5 nM

Source: publication PMC10353390, “Biological and Structural Analyses of New Potent Allosteric Inhibitors of HIV-1 Integrase” (Antimicrobial Agents and Chemotherapy, 2023)
